# Measurements: patent US5595730A, “Lactate dehydrogenase inhibitors in cosmetic compositions” (priority 1996, dated 1997)
# Read-outs that look alike come from different tables or passages of the source.
# How the values were obtained:
# [1] = test system: Normal human epidermal keratinocytes (NHEK); test: Keratinocyte proliferation (DNA content, fluorometric); assay type: cell-based; details: for activation at 70 µM: 0.07 mM; for Keratinocyte proliferation, % Increase Over Control: Table 7, single agent alone
# Procedure: Normal human epidermal keratinocytes (NHEK) derived from neonatal foreskin were used for all experiments. Media were purchased from Clonetics Corp., San Diego, Calif. Cell stocks frozen in passage 2 were grown in Keratinocyte Growth Medium (KGM) and passaged when 70-80% confluent. Cells were seeded in 96 well plates (Corning) at a density of 7500 cells/well in KGM. After 24 hours, cells were rinsed and dosed with test compounds in 200 μl of Keratinocyte Basal Medium (KBM). Plates were incubated for three days at 37° C., 5% CO2. Cell proliferation was estimated by assaying for DNA content by a fluorometric method described by Rago et al. (Analytical Biochemistry, 191:31-34, 1990). Medium was removed and cells were rinsed with phosphate buffered saline solution. 100 μl of sterile distilled water was added to each well and plates were frozen at -70° C. for one and a half hours. Plates were thawed for one hour at which time 100 μl of a 20 ug/ml solution of Bisbenzimide H33258 fluorochrome (Calbiochem Corp., La Jolla, Calif.) was added to each well. The fluorochrome was prepared just prior to use in 10 mM Tris, 1 mM EDTA, 4M NaCI, pH 7.4. Plates were read in a Millipore Cytofluor fluorescent plate reader to quantify DNA (excitation 360 nm, emission 460 nm). Percent increase over control was calculated from blank-corrected readings as (treated-untreated)/(untreated)*100. Each data point in the Tables below represents a mean of 5 or 6 replicates.
# The procedure of Example 2 was repeated except that various co-active ingredients were tested for their ability to stimulate keratinocyte proliferation.
# The procedure of Example 2 was repeated to test the effect of combination of an LDH inhibitor with another carboxylic acid on keratinocyte proliferation.
# procollagen 1 = test: Assay for collagen synthesis (secreted procollagen 1 immunoassay, fibroblasts); details: actives 0.2 to 20 mM, serum-free medium, 48 hours
# Procedure: Neonatal human dermal fibroblasts were purchased from Clonetics Corp., San Diego, Calif. All materials for cell culture were purchased from Life Technologies, N.Y. Cells were maintained in DMEM with 10% fetal bovine serum and used in passages 5-10. Confluent 96-well plates containing fibroblasts were treated with actives (0.2 to 20 mM) in serum-free medium for 48 hours. […] This was carried out in a BioDot SF apparatus according to the manufacturer's instructions (BioRad Labs, CA) and the blot was developed using a Vectastain Kit (PK6104, Vector Labs, CA) as per the manufacturer's directions. Color intensity was quantitated using an Ultroscan XL densitometer (Pharmacia LKB). Fold increase was calculated as (density of treated)/untreated.
compound,measurement,setting,value
CC(=O)O [Acetate],activation at 2 µM,"[1]; Homo sapiens, NHEK, 72 h, Table 4, Test A, 0.002 mM, read-out: Keratinocyte Proliferation (% increase over control)",22%
same,activation at 20 µM,"[1]; Homo sapiens, NHEK, 72 h, Table 4, Test A, 0.02 mM, read-out: Keratinocyte Proliferation (% increase over control)",31%
same,activation at 200 µM,"[1]; Homo sapiens, NHEK, 72 h, Table 4, Test A, 0.2 mM, read-out: Keratinocyte Proliferation (% increase over control)",43%
same,activation at 2000 µM,"[1]; Homo sapiens, NHEK, 72 h, Table 4, Test A, 2.0 mM, read-out: Keratinocyte Proliferation (% increase over control)",46%
same,activation at 10000 µM,"[1]; Homo sapiens, NHEK, 72 h, Table 4, Test A, 10 mM, read-out: Keratinocyte Proliferation (% increase over control)",63%
same,activation at 200 µM,"[1]; Homo sapiens, NHEK, 72 h, Table 4, Test B, 0.2 mM, read-out: Keratinocyte Proliferation (% increase over control)",12%
same,activation at 2000 µM,"[1]; Homo sapiens, NHEK, 72 h, Table 4, Test B, 2.0 mM, read-out: Keratinocyte Proliferation (% increase over control)",19%
same,activation at 10000 µM,"[1]; Homo sapiens, NHEK, 72 h, Table 4, Test B, 10 mM, read-out: Keratinocyte Proliferation (% increase over control)",0%
same,activation at 20000 µM,"[1]; Homo sapiens, NHEK, 72 h, Table 4, Test B, 20 mM, read-out: Keratinocyte Proliferation (% increase over control)",0%
same,activation at 156 µM,"[1]; Homo sapiens, NHEK, 72 h, Table 4, Test C, 0.156 mM, read-out: Keratinocyte Proliferation (% increase over control)",13%
same,activation at 313 µM,"[1]; Homo sapiens, NHEK, 72 h, Table 4, Test C, 0.313 mM, read-out: Keratinocyte Proliferation (% increase over control)",32%
same,activation at 625 µM,"[1]; Homo sapiens, NHEK, 72 h, Table 4, Test C, 0.625 mM, read-out: Keratinocyte Proliferation (% increase over control)",9%
same,activation at 1250 µM,"[1]; Homo sapiens, NHEK, 72 h, Table 4, Test C, 1.25 mM, read-out: Keratinocyte Proliferation (% increase over control)",2%
same,activation at 2500 µM,"[1]; Homo sapiens, NHEK, 72 h, Table 4, Test C, 2.5 mM, read-out: Keratinocyte Proliferation (% increase over control)",11%
same,activation at 5000 µM,"[1]; Homo sapiens, NHEK, 72 h, Table 4, Test C, 5.0 mM, read-out: Keratinocyte Proliferation (% increase over control)",0%
same,activation at 10000 µM,"[1]; Homo sapiens, NHEK, 72 h, Table 4, Test C, 10 mM, read-out: Keratinocyte Proliferation (% increase over control)",0%
same,activation at 70 µM,"[1]; Homo sapiens, NHEK, 72 h, Table 4, Test D, read-out: Keratinocyte Proliferation (% increase over control)",50%
same,activation at 156 µM,"[1]; Homo sapiens, NHEK, 72 h, Table 4, Test D, 0.156 mM, read-out: Keratinocyte Proliferation (% increase over control)",47%
same,activation at 313 µM,"[1]; Homo sapiens, NHEK, 72 h, Table 4, Test D, 0.313 mM, read-out: Keratinocyte Proliferation (% increase over control)",56%
same,activation at 625 µM,"[1]; Homo sapiens, NHEK, 72 h, Table 4, Test D, 0.625 mM, read-out: Keratinocyte Proliferation (% increase over control)",57%
same,activation at 1250 µM,"[1]; Homo sapiens, NHEK, 72 h, Table 4, Test D, 1.25 mM, read-out: Keratinocyte Proliferation (% increase over control)",42%
same,activation at 2500 µM,"[1]; Homo sapiens, NHEK, 72 h, Table 4, Test D, 2.5 mM, read-out: Keratinocyte Proliferation (% increase over control)",44%
same,activation at 5000 µM,"[1]; Homo sapiens, NHEK, 72 h, Table 4, Test D, 5.0 mM, read-out: Keratinocyte Proliferation (% increase over control)",18%
same,activation at 70 µM,"[1]; Homo sapiens, NHEK, 72 h, Table 4, Test E, read-out: Keratinocyte Proliferation (% increase over control)",0%
same,activation at 156 µM,"[1]; Homo sapiens, NHEK, 72 h, Table 4, Test E, 0.156 mM, read-out: Keratinocyte Proliferation (% increase over control)",6%
same,activation at 313 µM,"[1]; Homo sapiens, NHEK, 72 h, Table 4, Test E, 0.313 mM, read-out: Keratinocyte Proliferation (% increase over control)",24%
same,activation at 313 µM,"[1]; Homo sapiens, NHEK, 72 h, Table 4, Test F, 0.313 mM, read-out: Keratinocyte Proliferation (% increase over control)",5%
same,activation at 625 µM,"[1]; Homo sapiens, NHEK, 72 h, Table 4, Test F, 0.625 mM, read-out: Keratinocyte Proliferation (% increase over control)",34%
same,activation at 1250 µM,"[1]; Homo sapiens, NHEK, 72 h, Table 4, Test F, 1.25 mM, read-out: Keratinocyte Proliferation (% increase over control)",35%
same,activation at 2500 µM,"[1]; Homo sapiens, NHEK, 72 h, Table 4, Test F, 2.5 mM, read-out: Keratinocyte Proliferation (% increase over control)",33%
same,activation at 5000 µM,"[1]; Homo sapiens, NHEK, 72 h, Table 4, Test F, 5.0 mM, read-out: Keratinocyte Proliferation (% increase over control)",7%
same,activation at 10000 µM,"[1]; Homo sapiens, NHEK, 72 h, Table 4, Test F, 10 mM, read-out: Keratinocyte Proliferation (% increase over control)",0%
same,activation at 313 µM,"[1]; Homo sapiens, NHEK, 72 h, Table 4, Test G, 0.313 mM, read-out: Keratinocyte Proliferation (% increase over control)",38%
same,activation at 625 µM,"[1]; Homo sapiens, NHEK, 72 h, Table 4, Test G, 0.625 mM, read-out: Keratinocyte Proliferation (% increase over control)",11%
same,activation at 1250 µM,"[1]; Homo sapiens, NHEK, 72 h, Table 4, Test G, 1.25 mM, read-out: Keratinocyte Proliferation (% increase over control)",24%
same,activation at 2500 µM,"[1]; Homo sapiens, NHEK, 72 h, Table 4, Test G, 2.5 mM, read-out: Keratinocyte Proliferation (% increase over control)",12%
same,activation at 5000 µM,"[1]; Homo sapiens, NHEK, 72 h, Table 4, Test G, 5.0 mM, read-out: Keratinocyte Proliferation (% increase over control)",18%
same,activation at 10000 µM,"[1]; Homo sapiens, NHEK, 72 h, Table 4, Test G, 10 mM, read-out: Keratinocyte Proliferation (% increase over control)",0%
same,"Keratinocyte proliferation, % Increase Over Control",[1]; 0.156 mM,41%
same,"Keratinocyte proliferation, % Increase Over Control",[1]; 0.313 mM,28%
same,"Keratinocyte proliferation, % Increase Over Control",[1]; 0.625 mM,55%
same,"Keratinocyte proliferation, % Increase Over Control",[1]; 1.25 mM,55%
same,"Keratinocyte proliferation, % Increase Over Control",[1]; 2.5 mM,18%
same,"Keratinocyte proliferation, % Increase Over Control",[1]; 5.0 mM,0%
same,"Collagen Synthesis, Maximum fold over Control",procollagen 1,2.0 fold
O=C(O)CC(=O)C(=O)O [Oxaloacetate],activation at 2 µM,"[1]; Homo sapiens, NHEK, 72 h, read-out: Keratinocyte Proliferation (% increase over Control), Table 5, Test A, 0.002 mM",11%
same,activation at 20 µM,"[1]; Homo sapiens, NHEK, 72 h, read-out: Keratinocyte Proliferation (% increase over Control), Table 5, Test A, 0.02 mM",15%
same,activation at 200 µM,"[1]; Homo sapiens, NHEK, 72 h, read-out: Keratinocyte Proliferation (% increase over Control), Table 5, Test A, 0.2 mM",22%
same,activation at 2000 µM,"[1]; Homo sapiens, NHEK, 72 h, read-out: Keratinocyte Proliferation (% increase over Control), Table 5, Test A, 2.0 mM",53%
same,activation at 10000 µM,"[1]; Homo sapiens, NHEK, 72 h, read-out: Keratinocyte Proliferation (% increase over Control), Table 5, Test A, 10 mM",110%
same,activation at 20 µM,"[1]; Homo sapiens, NHEK, 72 h, read-out: Keratinocyte Proliferation (% increase over Control), Table 5, Test B, 0.02 mM",30%
same,activation at 200 µM,"[1]; Homo sapiens, NHEK, 72 h, read-out: Keratinocyte Proliferation (% increase over Control), Table 5, Test B, 0.2 mM",20%
same,activation at 2000 µM,"[1]; Homo sapiens, NHEK, 72 h, read-out: Keratinocyte Proliferation (% increase over Control), Table 5, Test B, 2.0 mM",16%
same,activation at 10000 µM,"[1]; Homo sapiens, NHEK, 72 h, read-out: Keratinocyte Proliferation (% increase over Control), Table 5, Test B, 10 mM",70%
same,activation at 20000 µM,"[1]; Homo sapiens, NHEK, 72 h, read-out: Keratinocyte Proliferation (% increase over Control), Table 5, Test B, 20 mM",44%
same,activation at 150 µM,"[1]; Homo sapiens, NHEK, 72 h, read-out: Keratinocyte Proliferation (% increase over Control), Table 5, Test C, 0.15 mM",13%
same,activation at 300 µM,"[1]; Homo sapiens, NHEK, 72 h, read-out: Keratinocyte Proliferation (% increase over Control), Table 5, Test C, 0.3 mM",18%
same,activation at 600 µM,"[1]; Homo sapiens, NHEK, 72 h, read-out: Keratinocyte Proliferation (% increase over Control), Table 5, Test C, 0.6 mM",20%
same,activation at 1250 µM,"[1]; Homo sapiens, NHEK, 72 h, read-out: Keratinocyte Proliferation (% increase over Control), Table 5, Test C, 1.25 mM",18%
same,activation at 2500 µM,"[1]; Homo sapiens, NHEK, 72 h, read-out: Keratinocyte Proliferation (% increase over Control), Table 5, Test C, 2.5 mM",40%
same,activation at 5000 µM,"[1]; Homo sapiens, NHEK, 72 h, read-out: Keratinocyte Proliferation (% increase over Control), Table 5, Test C, 5.0 mM",35%
same,activation at 10000 µM,"[1]; Homo sapiens, NHEK, 72 h, read-out: Keratinocyte Proliferation (% increase over Control), Table 5, Test C, 10 mM",0%
same,activation at 80 µM,"[1]; Homo sapiens, NHEK, 72 h, read-out: Keratinocyte Proliferation (% increase over Control), Table 5, Test D, 0.08 mM",56%
same,activation at 150 µM,"[1]; Homo sapiens, NHEK, 72 h, read-out: Keratinocyte Proliferation (% increase over Control), Table 5, Test D, 0.15 mM",76%
same,activation at 300 µM,"[1]; Homo sapiens, NHEK, 72 h, read-out: Keratinocyte Proliferation (% increase over Control), Table 5, Test D, 0.3 mM",63%
same,activation at 600 µM,"[1]; Homo sapiens, NHEK, 72 h, read-out: Keratinocyte Proliferation (% increase over Control), Table 5, Test D, 0.6 mM",48%
same,activation at 1250 µM,"[1]; Homo sapiens, NHEK, 72 h, read-out: Keratinocyte Proliferation (% increase over Control), Table 5, Test D, 1.25 mM",37%
same,activation at 2500 µM,"[1]; Homo sapiens, NHEK, 72 h, read-out: Keratinocyte Proliferation (% increase over Control), Table 5, Test D, 2.5 mM",37%
same,activation at 5000 µM,"[1]; Homo sapiens, NHEK, 72 h, read-out: Keratinocyte Proliferation (% increase over Control), Table 5, Test D, 5.0 mM",52%
same,activation at 10000 µM,"[1]; Homo sapiens, NHEK, 72 h, read-out: Keratinocyte Proliferation (% increase over Control), Table 5, Test D, 10 mM",52%
same,"Collagen Synthesis, Maximum fold over Control",procollagen 1,3.0 fold
